“And” between values parts separate entries of the source, which are not always exact repeats. Identical values can stand only once. Like-named read-outs stand apart in the source and are kept apart here.
What was measured:
[1] = tested on: platinum resistant ovarian cancer cells (A2780/DDPt); details: for Days to 3 Times Tumor Weight: median; for T − C (tumor growth delay): median time to 3 times original size, drug group minus control; for Persistence of tumor growth delay profiles: FIGS. 2A and 2B, dotted lines
Description: Female athymic (Ncr:Nu) mice were implanted subcutaneously with A2780/DDPt tumor fragments and the tumors were allowed to reach a weight range of 163 to 189 mg. […] One group of animals was treated with cisplatin at a dose of 8 mg/kg. The control group received normal saline. The animals were weighed and the tumors measured twice weekly after administration of the first drug injection.

[2] = tested on: oropharyngeal carcinoma cancer cells (KB)
Description: (§1) Female athymic (Ncr:Nu) mice were implanted subcutaneously with KB tumor fragments and the tumors were allowed to reach a weight range of 160 to 190 mg. […] The control group received normal saline. The animals were weighed and the tumors measured twice weekly after administration of the first drug injection.

[3] = tested on: human colorectal cancer cells (HT-29); details: for Tumor Regression Complete / Tumor Regression Partial: n=10 mice; for Tumor Regression Complete: complete: unpalpable; for Tumor Regression Partial: partial: <50% of size on day 1; for T − C (tumor growth delay): median time to 2 times original size, drug group minus control; for Days to 2 Times Tumor Weight: median
Description: as §1, with “HT-29” for “KB”, “162” for “160”, “188” for “190”

[4] = all doses (40, 60, 90 mg/kg i.v.)
[5] = any of the doses (40, 60, 90 mg/kg)
[6] = 40 mg/kg i.v. every fourth day x3
[7] = 60 mg/kg i.v. every fourth day x3
[8] = 90 mg/kg i.v. every fourth day x3
[9] = 40, 60 or 90 mg/kg i.v. every fourth day x3

Q: Which “Days to 3 Times Tumor Weight” value ([1]; 8 mg/kg) does the source give for `N.N.[Cl][Pt][Cl]` [Cisplatin] here?
A: The value was 8.9 days.

Q: What about the “T − C (tumor growth delay)” value ([1]; 8 mg/kg) of the same compound?
A: The value was 0.5 days.

Q: How did the Tolerability [2, 4] turn out when `CCc1c2c(nc3ccc(OC(=O)N4CCC(N5CCCCC5)CC4)cc13)-c1cc3c(c(=O)n1C2)COC(=O)[C@]3(O)CC` [Irinotecan] was run?
A: Its Tolerability is “well tolerated”.

Q: And the Tumor regression [2, 5]?
A: The Tumor regression was “not observed”.

Q: And the “Maximum loss in body weight” value ([2]; mouse, in vivo)?
A: Its value is 2%.

Q: What about the “Tumor Regression Complete” value [3, 6] of the same compound?
A: The value was 0.

Q: What about the “Tumor Regression Partial” value [3, 6] of the same compound?
A: Its value is 0.

Q: And the “T − C (tumor growth delay)” value ([3]; 40 mg/kg)?
A: The value was 8.8 days.

Q: And the “Days to 2 Times Tumor Weight” value [3, 7]?
A: Its value is 21.4 days.

Q: And the “Tumor Regression Complete” value [3, 7]?
A: The value was 0.

Q: What about the “Tumor Regression Partial” value [3, 7] of the same compound?
A: Its value is 0.

Q: What about the “Tumor Regression Complete” value [3, 8] of the same compound?
A: The value was 0.

Q: And the “Tumor Regression Partial” value [3, 8]?
A: The value was 0.

Q: What about the “Decrease in tumor growth compared to the control group” value ([3]; 40, 60, 90 mg/kg groups) of the same compound?
A: Its value is “did not show a statistically significant decrease”.

Q: What about the “Maximum loss in body weight” value [3, 9] of the same compound?
A: The value was 8%.

Q: And the Tolerability [3, 4]?
A: The Tolerability was “well tolerated”.

Q: And the Tumor regression [3, 5]?
A: Its Tumor regression is “not observed”.

Q: And the “Days to 3 Times Tumor Weight” value [1, 6]?
A: The value was 13.0 days.

Q: What about the “T − C (tumor growth delay)” value ([1]; 40 mg/kg) of the same compound?
A: Its value is 4.6 days.

Q: What about the “Days to 3 Times Tumor Weight” value [1, 7] of the same compound?
A: Its value is 16.4 days.

Q: What about the “T − C (tumor growth delay)” value ([1]; 60 mg/kg) of the same compound?
A: Its value is 8.0 days.

Q: What about the “Days to 3 Times Tumor Weight” value [1, 8] of the same compound?
A: Its value is 18.6 days.

Q: What about the “T − C (tumor growth delay)” value ([1]; 90 mg/kg) of the same compound?
A: Its value is 10.2 days.

Q: What about the “Decrease in tumor growth compared to the control group” value ([1]; 40, 60, 90 mg/kg groups) of the same compound?
A: Its value is “did not show a statistically significant decrease”.

Q: And the “Maximum loss in body weight” value [1, 9]?
A: Its value is 2%.

Q: What about the “Persistence of tumor growth delay profiles” value [1] of the same compound?
A: Its value is 14 days.

Q: What about the Tolerability [1, 4] of the same compound?
A: Its Tolerability is “well tolerated”.

Q: Which “Complete tumor regression, share of mice” value ([2]; mouse, in vivo) does the source give for “H-(Irino.HCl)10(EOZ)190-T-Folate [Folate-POZ-irinotecan]” here?
A: The value was 70% and 50%.

Q: And the “Complete tumor regression, share of treated mice” value ([2]; mouse, in vivo)?
A: The value was greater than 50%.

Q: What about the “Tumor growth delay (T-C value) compared to irinotecan” value ([2]; mouse, in vivo) of the same compound?
A: The value was “significantly higher”.

Q: What does the source list for “H-(Irino.HCl)10(EOZ)200-T-PA [POZ-irinotecan]”?
A: Days to 2 Times Tumor Weight [3, 6]: 31.4 days; Tumor Regression Complete [3, 6]: 0; T − C (tumor growth delay) ([3]; 40 mg/kg): 23.4 days; Median Duration of Regression [3, 7]: 18 days; Days to 2 Times Tumor Weight [3, 7]: >60.0 days; Tumor Regression Complete [3, 7]: 1; T − C (tumor growth delay) ([3]; 60 mg/kg): >52 days; Median Duration of Regression [3, 8]: 25 days; Days to 2 Times Tumor Weight [3, 8]: >60.0 days; Tumor Regression Complete [3, 8]: 7; T − C (tumor growth delay) ([3]; 90 mg/kg): >52 days; Tumor growth delay (T-C value) compared to irinotecan ([3]; all 3 doses tested, p<0.001): significantly higher; Days to 3 Times Tumor Weight [1, 6]: 12.7 days; T − C (tumor growth delay) ([1]; 40 mg/kg): 4.3 days; Days to 3 Times Tumor Weight [1, 7]: 20.3 days; T − C (tumor growth delay) ([1]; 60 mg/kg): 11.9 days; Tumor growth delay (T-C value) compared to irinotecan ([1]; 90 mg/kg dose, p<0.001): significantly higher; Days to 3 Times Tumor Weight [1, 8]: 36.3 days; T − C (tumor growth delay) ([1]; 90 mg/kg): 27.9 days; Persistence of tumor growth delay profiles [1]: at least 32 days

Source: US10166294B2, “Multifunctional forms of polyoxazoline copolymers and drug compositions comprising the same” (priority 2008, dated 2019)
